In patent US20100168079A1 (priority 2008, published 2010):

Tests used:
human S1P1 receptors = target: T1, human S1P1 receptors (Homo sapiens, UniProt P21453); assay: Human S1P1 Receptor Calcium FLIPR Antagonist Assay (HeLa Gα16 S1P1); assay type: cell-based; settings: relative antagonism of Ca2+ signal evoked by probing agonist GNF-AC-1 at EC80; HeLa-S1P1/Gα16 cells
T1 construct: myc (N); expressed in transfected cells; host or cells: HeLa (human cervix carcinoma, ATCC CCL2), HeLa-S1P1/Gα16 cell clone 1
T1 sequence (P21453 whole entry): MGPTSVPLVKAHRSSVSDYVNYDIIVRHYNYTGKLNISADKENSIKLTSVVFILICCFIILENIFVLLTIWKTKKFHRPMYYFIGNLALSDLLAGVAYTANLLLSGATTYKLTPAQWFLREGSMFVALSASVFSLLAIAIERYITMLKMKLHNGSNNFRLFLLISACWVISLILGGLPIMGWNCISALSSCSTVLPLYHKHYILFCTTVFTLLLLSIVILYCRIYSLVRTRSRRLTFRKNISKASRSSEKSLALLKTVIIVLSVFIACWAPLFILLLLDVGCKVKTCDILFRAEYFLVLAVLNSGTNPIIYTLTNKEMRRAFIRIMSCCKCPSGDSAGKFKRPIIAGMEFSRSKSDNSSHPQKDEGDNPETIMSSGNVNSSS
Outline: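 HeLa Gα16 cells expressing S1P1 loaded for calcium fluorescence on FLIPR; compounds added in HBSS with 0.1% BSA, then agonist at EC80 20-30 min later. IC50 from (Fmax-Fmin)/Fmin versus log compound concentration.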

circulating lymphocytes = assay: Measurement of Circulating Lymphocytes; assay type: in vivo, Rats (Lewis strain, male); settings: Rattus norvegicus, Lymphocyte; male Lewis rats, 14 hours after oral 30 mg/kg, compared to vehicle-only group; mean±SEM; read-out: Residual Lymphocyte Counts 14 hours after 30 mg/kg p.o. dosing
Method: The compounds of formula (I) typically induce the depletion of blood lymphocyte as may be determined in the assay described below. Moreover, compounds of formula (I) are typically efficacious in the said assay also when administered via the per oral route of administration.
Measurement of Circulating Lymphocytes:
The test compounds (or salts thereof) are dissolved in a vehicle such as water, saline, PEG (polyethylene glycol) 200, or PBS (phosphate buffered saline). Rats (Lewis strain, male, 6-12 weeks old) are administered up to 100 mg/kg of the test compounds in 2 ml/kg vehicle via per oral or subcutaneous application. The vehicle or a reference salt and FTY720 (0.3 mg/kg) are included as negative and positive controls, respectively.
Blood is collected from the sublingual vein before and 2, 8 and 24 hours or 14, 18 and 24 hours after the test compound administration under short isoflurane anesthesia. Whole blood samples are subjected to hematology analysis. Peripheral lymphocyte counts are determined using an automated analyzer. The Haemathology System uses a combination of light scatter, cytochemical staining and nuclear density on two independent channels to measure the total and differential white cell counts. Two to four rats are used to assess the lymphocyte depletion activity of each compound screened. The data are presented as mean±SEM.

Row | SMILES | IC50 (human S1P1 receptors) [nM] | response vs control in vivo at 30 mg/kg (circulating lymphocytes) [%]
1 | CCC(Nc1ccc(F)c(-c2cc(C)c(C(=O)NC3(C(=O)O)CC3)c(C)c2)c1)c1ccc(Cl)c(C)c1 (stereo not shown) [Example 25, 1-({5′-[1-(4-Chloro-3-methyl-phenyl)-propylamino]-2′-fluoro-3,5-dimethyl-biphenyl-4-carbonyl}-amino)-cyclopropanecarboxylic acid] | 2 | 15
2 | Cc1cc(C(C)Nc2ccc(F)c(-c3cc(C)c(C(=O)NC4(C(=O)O)CC4)c(C)c3)c2)ccc1Cl (stereo not shown) [Example 26, 1-({5′-[1-(4-Chloro-3-methyl-phenyl)-ethylamino]-2′-fluoro-3,5-dimethyl-biphenyl-4-carbonyl}-amino)-cyclopropanecarboxylic acid] | 1 | 12.9
3 | Cc1cc([C@@H](C)Nc2cccc(-c3cc(C)c(C(=O)N(C)[C@@H](C)C(=O)O)c(C)c3)c2)ccc1Cl [Example 73] | 4 | 16.6
4 | Cc1cc(C(Nc2cccc(-c3cc(C)c(C(=O)N[C@@H](C)C(=O)O)c(C)c3)c2)C(F)(F)F)ccc1Cl (stereo partly drawn) [Example 74, (S)-2-({3′-[1-(4-Chloro-3-methyl-phenyl)-2,2,2-trifluoro-ethylamino]-3,5-dimethyl-biphenyl-4-carbonyl}-amino)-propionic acid] | 8 | 15.5
5 | Cc1cc(C(C)(C)Nc2cccc(-c3cc(C)c(C(=O)N(C)[C@@H](C)C(=O)O)c(C)c3)c2)ccc1Cl [Example 83, (S)-2-({3′-[1-(4-Chloro-3-methyl-phenyl)-1-methyl-ethylamino]-3,5-dimethyl-biphenyl-4-carbonyl}-methyl-amino)-propionic acid] | 2 | 15.2

More lines, in order of falling IC50 (human S1P1 receptors), values ahead:

Row | IC50 (human S1P1 receptors) [nM] | SMILES | response vs control in vivo at 30 mg/kg (circulating lymphocytes) [%]
6 | 6 | Cc1cc(C(Nc2cccc(-c3cc(C)c(C(=O)N[C@@H](C)C(=O)O)c(C)c3)c2)C(F)F)ccc1Cl (stereo partly drawn) [Example 75, (S)-2-({3′-[1-(4-Chloro-3-methyl-phenyl)-2,2-difluoro-ethylamino]-3,5-dimethyl-biphenyl-4-carbonyl}-amino)-propionic acid] | 19.4
7 | 3 | Cc1cc(C(C)(C)Nc2cccc(-c3cc(C)c(C(=O)N[C@@H](C)C(=O)O)c(C)c3)c2)ccc1Cl [Example 82, (S)-2-({3′-[1-(4-Chloro-3-methyl-phenyl)-1-methyl-ethylamino]-3,5-dimethyl-biphenyl-4-carbonyl}-amino)-propionic acid] | 10.8
8 | 2 | Cc1cc(C(C)(C)Nc2cccc(-c3cc(C)c(C(=O)NC4(C(=O)O)CC4)c(C)c3)c2)ccc1Cl [Example 84, 1-({3′-[1-(4-Chloro-3-methyl-phenyl)-1-methyl-ethylamino]-3,5-dimethyl-biphenyl-4-carbonyl}-amino)-cyclopropanecarboxylic acid] | 18.6
9 | 1 | Cc1cc([C@@H](C)Nc2ccc(F)c(-c3cc(C)c(C(=O)N[C@@H](C)C(=O)O)c(C)c3)c2)ccc1Cl [Example 23, (S)-2-({5′-[(R)-1-(4-Chloro-3-methyl-phenyl)-ethylamino]-2′-fluoro-3,5-dimethyl-biphenyl-4-carbonyl}-amino)-propionic acid] | 17.4
10 | 1 | CCC(Nc1ccc(F)c(-c2cc(C)c(C(=O)N[C@@H](C)C(=O)O)c(C)c2)c1)c1ccc(Cl)c(C)c1 (stereo partly drawn) [Example 24, (S)-2-({5′-[1-(4-Chloro-3-methyl-phenyl)-propylamino]-2′-fluoro-3,5-dimethyl-biphenyl-4-carbonyl}-amino)-propionic acid] | 16.8
11 | 1 | Cc1cc([C@@H](C)Nc2cccc(-c3cc(C)c(C(=O)N(C)C4(C(=O)O)CC4)c(C)c3)c2)ccc1Cl [Example 81, 1-({3′-[(R)-1-(4-Chloro-3-methyl-phenyl)-ethylamino]-3,5-dimethyl-biphenyl-4-carbonyl}-methyl-amino)-cyclopropanecarboxylic acid] | 15.4
